Test results from ChEMBL document CHEMBL1201862, “PubChem BioAssay data set” (2004).
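Method: 48-hour compound exposure of cells in 96-well plates, five concentrations, linear interpolation of endpoints. Here, GI50 denotes the concentration required for 50% inhibition of growth.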 Calls of active or inactive are those of the source. No stated cut-off is given here; in the data, active = GI50 up to about 1.1 µM and inactive = higher.

Tests used:
Test in all cases: NCI anticancer screen, dose series, 48 h
786-0 = tested on: 786-0
A498 = tested on: A498
A549 = tested on: A549
ACHN = tested on: ACHN
BT-549 = tested on: BT-549
CAKI-1 = tested on: CAKI-1
CCRF-CEM = tested on: CCRF-CEM
COLO 205 = tested on: COLO 205
DU-145 = tested on: DU-145
EKVX = tested on: EKVX
HCC 2998 = tested on: HCC 2998
HCT-116 = tested on: HCT-116
HCT-15 = tested on: HCT-15
HL-60 = tested on: HL-60
HOP-62 = tested on: HOP-62
HOP-92 = tested on: HOP-92
HT-29 = tested on: HT-29
Hs-578T = tested on: Hs-578T
IGROV-1 = tested on: IGROV-1
K562 = tested on: K562
KM12 = tested on: KM12
LOX IMVI = tested on: LOX IMVI
M14 = tested on: M14
MCF7 = tested on: MCF7
MDA-MB-231 = tested on: MDA-MB-231
MDA-MB-435 = tested on: MDA-MB-435
MDA-N = tested on: MDA-N
MOLT-4 = tested on: MOLT-4
Malme-3M = tested on: Malme-3M
NCI-H226 = tested on: NCI-H226
NCI-H23 = tested on: NCI-H23
NCI-H460 = tested on: NCI-H460
NCI-H522 = tested on: NCI-H522
NCI/ADR-RES = tested on: NCI/ADR-RES
OVCAR-3 = tested on: OVCAR-3
OVCAR-4 = tested on: OVCAR-4
OVCAR-5 = tested on: OVCAR-5
OVCAR-8 = tested on: OVCAR-8
PC-3 = tested on: PC-3
RPMI-8226 = tested on: RPMI-8226
RXF 393 = tested on: RXF 393
SF-268 = tested on: SF-268
SF-295 = tested on: SF-295
SF-539 = tested on: SF-539
SK-MEL-28 = tested on: SK-MEL-28
SK-MEL-2 = tested on: SK-MEL-2
SK-MEL-5 = tested on: SK-MEL-5
SK-OV-3 = tested on: SK-OV-3
SN12C = tested on: SN12C
SNB-19 = tested on: SNB-19
SNB-75 = tested on: SNB-75
SR = tested on: SR
SW-620 = tested on: SW-620
T47D = tested on: T47D
TK-10 = tested on: TK-10
U-251 = tested on: U-251
UACC-257 = tested on: UACC-257
UACC-62 = tested on: UACC-62
UO-31 = tested on: UO-31
DLD-1 = tested on: DLD-1
DMS-273 = tested on: DMS-273
KM-20L2 = tested on: KM-20L2
LXFL 529 = tested on: LXFL 529
M19-MEL = tested on: M19-MEL
SNB-78 = tested on: SNB-78
XF498 = tested on: XF498

## CN1CCN(C(=O)c2cn(Cc3cncn3Cc3ccc4c(c3)OCO4)cc2-c2cccc3ccccc23)CC1
786-0
  GI50: 20.9 µM (inactive)
A498
  GI50: 0.883 µM (active)
A549
  GI50: 16.9 µM (inactive)
ACHN
  GI50: 9.98 µM (inactive)
BT-549
  GI50: 9.75 µM (inactive)
CAKI-1
  GI50: 20.5 µM (inactive)
CCRF-CEM
  GI50: 4.71 µM (inactive)
COLO 205
  GI50: 14.7 µM (inactive)
DU-145
  GI50: 37.4 µM (inactive)
EKVX
  GI50: 15.3 µM (inactive)
HCC 2998
  GI50: 10.6 µM (inactive)
HCT-116
  GI50: 4.89 µM (inactive)
HCT-15
  GI50: 17 µM
HL-60
  GI50: 0.337 µM (active)
HOP-62
  GI50: 26.9 µM (inactive)
HOP-92
  GI50: 1.03 µM (active)
HT-29
  GI50: 3.11 µM (inactive)
Hs-578T
  GI50: 23.2 µM (inactive)
IGROV-1
  GI50: 2.85 µM (inactive)
K562
  GI50: 3.32 µM (inactive)
KM12
  GI50: 0.782 µM (active)
LOX IMVI
  GI50: 4.76 µM (inactive)
M14
  GI50: 0.273 µM (active)
MCF7
  GI50: 14.2 µM (inactive)
MDA-MB-231
  GI50: 9.25 µM (inactive)
MDA-MB-435
  GI50: 0.198 µM (active)
MDA-N
  GI50: 0.378 µM (active)
MOLT-4
  GI50: 1.58 µM (inactive)
Malme-3M
  GI50: 3.33 µM (inactive)
NCI-H226
  GI50: 58.1 µM (inactive)
NCI-H23
  GI50: 12.2 µM (inactive)
NCI-H460
  GI50: 2.46 µM (inactive)
NCI-H522
  GI50: 5.86 µM (inactive)
NCI/ADR-RES
  GI50: 28.2 µM (inactive)
OVCAR-3
  GI50: 25.5 µM (inactive)
OVCAR-4
  GI50: 22.3 µM (inactive)
OVCAR-5
  GI50: 24.8 µM (inactive)
OVCAR-8
  GI50: 31.6 µM (inactive)
PC-3
  GI50: 15.6 µM (inactive)
RPMI-8226
  GI50: 7.05 µM (inactive)
RXF 393
  GI50: 30 µM (inactive)
SF-268
  GI50: 18.5 µM (inactive)
SF-295
  GI50: 6.24 µM (inactive)
SF-539
  GI50: 21.1 µM (inactive)
SK-MEL-28
  GI50: 4.83 µM (inactive)
SK-MEL-2
  GI50: 0.268 µM (active)
SK-MEL-5
  GI50: 9.04 µM (inactive)
SK-OV-3
  GI50: 22.7 µM (inactive)
SN12C
  GI50: 17.5 µM (inactive)
SNB-19
  GI50: 14.3 µM (inactive)
SNB-75
  GI50: 14.7 µM (inactive)
SR
  GI50: 0.0237 µM (active)
SW-620
  GI50: 13.9 µM (inactive)
T47D
  GI50: 15.7 µM (inactive)
TK-10
  GI50: 29.1 µM (inactive)
U-251
  GI50: 7.73 µM (inactive)
UACC-257
  GI50: 14 µM (inactive)
UACC-62
  GI50: 7.96 µM (inactive)
UO-31
  GI50: 7.66 µM (inactive)

## CCOC(=O)C(Cc1ccc2ccccc2c1)(Cc1ccc2ccccc2c1)C(C)=O
786-0
  GI50: 4.92 µM (inactive)
A549
  GI50: 3.78 µM (inactive)
ACHN
  GI50: > 10 µM (inactive)
CCRF-CEM
  GI50: 5.13 µM (inactive)
COLO 205
  GI50: > 10 µM (inactive)
DLD-1
  GI50: 2.69 µM (inactive)
DMS-273
  GI50: 5.38 µM (inactive)
HCC 2998
  GI50: 3.02 µM (inactive)
HCT-15
  GI50: 8.47 µM
HOP-62
  GI50: 7.53 µM (inactive)
HOP-92
  GI50: 5.41 µM (inactive)
IGROV-1
  GI50: > 10 µM (inactive)
K562
  GI50: 1.67 µM (inactive)
KM-20L2
  GI50: > 10 µM (inactive)
LOX IMVI
  GI50: > 10 µM (inactive)
LXFL 529
  GI50: 4.47 µM (inactive)
M14
  GI50: > 10 µM (inactive)
M19-MEL
  GI50: > 10 µM (inactive)
MOLT-4
  GI50: 0.635 µM (active)
Malme-3M
  GI50: 3.28 µM (inactive)
NCI-H460
  GI50: 7.31 µM (inactive)
OVCAR-4
  GI50: 8.67 µM (inactive)
RPMI-8226
  GI50: 1.86 µM (inactive)
SK-OV-3
  GI50: > 10 µM (inactive)
SN12C
  GI50: > 10 µM (inactive)
SNB-78
  GI50: > 10 µM (inactive)
SW-620
  GI50: > 10 µM (inactive)
U-251
  GI50: > 10 µM (inactive)
UACC-62
  GI50: > 10 µM (inactive)
XF498
  GI50: 3.39 µM (inactive)
